This note sets out measurements from PubChem BioAssay AID743132 (The Scripps Research Institute Molecular Screening Center, 2013).

Active and inactive are the calls of the source.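 The calls were made as follows: active = compounds blocking probe labeling of mouse brain LYPLA1 and LYPLA2 with IC50 at most 1000 nM; inactive = IC50 above 1000 nM.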

What all share (assay): LYPLA1/2 inhibition with ABHD6 and FAAH off-targets, late-stage follow-up, selectivity assay for LYPLA1/LYPLA2 inhibitor project, cell lysate, mouse brain membrane proteome, fluorescence gel (AID 743132)
The target in test [1] is Acyl-protein thioesterase 1 (Mus musculus) (UniProt P97823). The settings on record: gel-based ABPP FP-Rh fluorescence, LYPLA1/2.
The target in another test is FAAH. The settings on record: gel-based ABPP FP-Rh fluorescence.
Test [2] has as its target Monoacylglycerol lipase ABHD6 (Mus musculus) (UniProt Q8R2Y0). The following applies: gel-based ABPP FP-Rh fluorescence.

Sequence of Acyl-protein thioesterase 1 (Mus musculus) (P97823 whole entry, looked up): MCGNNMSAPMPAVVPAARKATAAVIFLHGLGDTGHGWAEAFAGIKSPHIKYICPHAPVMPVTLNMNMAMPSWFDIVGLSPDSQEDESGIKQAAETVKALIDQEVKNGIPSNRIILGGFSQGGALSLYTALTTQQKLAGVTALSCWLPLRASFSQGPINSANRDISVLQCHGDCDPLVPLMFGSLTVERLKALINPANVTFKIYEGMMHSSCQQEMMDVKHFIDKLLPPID
Sequence of Monoacylglycerol lipase ABHD6 (Mus musculus) (Q8R2Y0 whole entry, looked up): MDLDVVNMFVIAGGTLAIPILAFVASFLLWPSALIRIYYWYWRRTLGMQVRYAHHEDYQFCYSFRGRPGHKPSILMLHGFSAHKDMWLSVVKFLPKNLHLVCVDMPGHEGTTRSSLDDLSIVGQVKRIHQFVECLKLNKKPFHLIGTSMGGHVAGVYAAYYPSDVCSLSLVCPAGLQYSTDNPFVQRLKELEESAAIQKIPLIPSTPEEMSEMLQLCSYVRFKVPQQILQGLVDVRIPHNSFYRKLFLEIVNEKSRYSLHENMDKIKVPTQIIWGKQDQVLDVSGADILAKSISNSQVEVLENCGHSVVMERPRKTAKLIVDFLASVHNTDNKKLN

For the compound `O=C(ON1C(=O)C2CN(C(=O)N3CCOCC3)CCN2C1=O)N1CCC(CCc2ccc(Cl)cc2)CC1` (stereo not drawn), the figures for the IC50 in test [1] and in test [2] were 0.154 µM and 0.00315 µM, respectively. The IC50 – broadly, the concentration needed to halve the response being measured – at FAAH is “inactive”.
